System: P12-Ichikawa
Test: cell viability relative to DMSO control; higher = less cytotoxic
Details: 48 h
How it was run: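 Viability, reported as a per-plate percentage of DMSO wells with cell-free wells as background, came from CellTiter-Glo One luminescence. Reading took place after 48 h at 37°C. Before that, NOMO1 or SEM (500 cells/well) or P12-Ichikawa (1000 cells/well) leukemia cells, adapted for at least four passages in each medium, were seeded in 1536-well plates (5 μl) and pin-dosed with library compounds in DMSO, 47 μM to 0.79 nM over 11 threefold points.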

[1] = HPLM + 10% dialyzed FBS, 0.000781 µM
[2] = HPLM + 10% dialyzed FBS, 0.00234 µM
[3] = HPLM + 10% dialyzed FBS, 0.00702 µM
[4] = HPLM + 10% dialyzed FBS, 0.0211 µM
[5] = HPLM + 10% dialyzed FBS, 0.0632 µM
[6] = HPLM + 10% dialyzed FBS, 0.19 µM
[7] = HPLM + 10% dialyzed FBS, 0.569 µM
[8] = HPLM + 10% dialyzed FBS, 1.71 µM
[9] = HPLM + 10% dialyzed FBS, 5.12 µM
[10] = HPLM + 10% dialyzed FBS, 15.4 µM
[11] = HPLM + 10% dialyzed FBS, 46.1 µM
[12] = RPMI 5 mM glucose + 10% FBS, 0.000781 µM
[13] = RPMI 5 mM glucose + 10% FBS, 0.00234 µM
[14] = RPMI 5 mM glucose + 10% FBS, 0.00702 µM
[15] = RPMI 5 mM glucose + 10% FBS, 0.0211 µM
[16] = RPMI 5 mM glucose + 10% FBS, 0.0632 µM
[17] = RPMI 5 mM glucose + 10% FBS, 0.19 µM
[18] = RPMI 5 mM glucose + 10% FBS, 0.569 µM
[19] = RPMI 5 mM glucose + 10% FBS, 1.71 µM
[20] = RPMI 5 mM glucose + 10% FBS, 5.12 µM
[21] = RPMI 5 mM glucose + 10% FBS, 15.4 µM
[22] = RPMI 5 mM glucose + 10% FBS, 46.1 µM
[23] = RPMI 5 mM glucose + 10% dialyzed FBS, 0.000781 µM
[24] = RPMI 5 mM glucose + 10% dialyzed FBS, 0.00234 µM
[25] = RPMI 5 mM glucose + 10% dialyzed FBS, 0.00702 µM
[26] = RPMI 5 mM glucose + 10% dialyzed FBS, 0.0211 µM
[27] = RPMI 5 mM glucose + 10% dialyzed FBS, 0.0632 µM
[28] = RPMI 5 mM glucose + 10% dialyzed FBS, 0.19 µM
[29] = RPMI 5 mM glucose + 10% dialyzed FBS, 0.569 µM
[30] = RPMI 5 mM glucose + 10% dialyzed FBS, 1.71 µM
[31] = RPMI 5 mM glucose + 10% dialyzed FBS, 5.12 µM
[32] = RPMI 5 mM glucose + 10% dialyzed FBS, 15.4 µM
[33] = RPMI 5 mM glucose + 10% dialyzed FBS, 46.1 µM

SMILES	cell viability [1]	cell viability [2]	cell viability [3]	cell viability [4]	cell viability [5]	cell viability [6]	cell viability [7]	cell viability [8]	cell viability [9]	cell viability [10]	cell viability [11]	cell viability [12]	cell viability [13]	cell viability [14]	cell viability [15]	cell viability [16]	cell viability [17]	cell viability [18]	cell viability [19]	cell viability [20]	cell viability [21]	cell viability [22]	cell viability [23]	cell viability [24]	cell viability [25]	cell viability [26]	cell viability [27]	cell viability [28]	cell viability [29]	cell viability [30]	cell viability [31]	cell viability [32]	cell viability [33]
Cc1cc(O)c2c(c1)C(=O)c1cccc(O)c1C2=O	112%	119%	119%	127%	121%	137%	128%	133%	122%	113%	87.1%																						
CC\12CCC(=O)\C=C1CCC3C2CCC4(C)C3CCC4(O)C#C (configuration not stated)	102%	101%	99.2%	93.9%	97.9%	93.4%	92%	92.3%	94.2%	80.6%	92.3%	99.3%	102%	97.7%	100%	96.8%	97.1%	93.1%	96.6%	85.7%	81.8%	90.3%	83.5%	85.6%	88.9%	91.1%	95.7%	93.6%	91.1%	88.6%	85.4%	84.2%	83%
NC(=O)Nc1sc(-c2ccc(F)cc2)cc1C(N)=O	113%	115%	116%	108%	114%	111%	104%	105%	83.4%	67.3%	24.3%	113%	114%	111%	110%	105%	119%	106%	106%	83.9%	64.6%	22.1%	118%	119%	117%	110%	115%	112%	110%	97.3%	82.4%	70.2%	27.3%
OC1=CC2=C(C=C1)C(=O)\C(=C(O2)\C3=CC(=C(O)C=C3)O)O	102%	105%	98.2%	91.1%	94%	87.7%	89.5%	92.4%	86%	82.4%	44%	94.1%	94.7%	97.5%	87%	91.2%	96.5%	88.8%	85.5%	86%	88.1%	32.2%	86.5%	91.1%	88%	87.2%	97.6%	88.1%	85%	84.8%	90.4%	79.7%	32.5%
COc1cc([C@@H]2c3cc4c(cc3[C@H](O)[C@H]3COC(=O)[C@@H]23)OCO4)cc(OC)c1OC	84.1%	93.9%	95.1%	104%	100%	77.6%	30.8%	14.3%	8.67%	5.39%	4.89%	94.5%	95.3%	96.5%	95.7%	98.7%	83.2%	34.1%	20.9%	8.85%	5.8%	4.88%	86.9%	95.1%	101%	94.3%	97.6%	91.2%	43.9%	22.7%	15%	10.4%	5.7%
CN(C)C1=CC(=CC=C1)C\2=C\3C(=O)N(NC3=C/C(=O)N2C)C4=CC=CC=C4Cl	114%	112%	106%	111%	113%	95.8%	90.3%	10.8%	4.69%	4.7%	7.14%	113%	122%	116%	110%	117%	110%	103%	25.7%	9.73%	8.05%	15.8%	122%	114%	114%	112%	120%	109%	102%	41.3%	21.1%	16.6%	23.9%
COc1cccc2c1C(=O)c1c(O)c3c(c(O)c1C2=O)C[C@@](O)(C(=O)CO)C[C@@H]3O[C@H]1C[C@H](N)[C@H](O[C@H]2CCCCO2)[C@H](C)O1	122%	127%	123%	123%	115%	125%	121%	92.3%	9.81%	113%	99%	122%	122%	120%	127%	117%	122%	106%	70.2%	6.23%	108%	94.6%	125%	121%	102%	128%	117%	114%	97.5%	71.5%	7.42%	93%	84.7%
NC(=O)[C@H]1CCS[C@@H]2C[C@]3(CCCN3C(=O)Cc3ccc(NC(=O)COc4ccc(Cl)cc4Cl)cc3)C(=O)N12	113%	115%	120%	110%	114%	101%	73.1%	16.5%	18.6%	18.5%	12.8%	110%	109%	120%	111%	128%	110%	106%	40.3%	16.5%	22.9%	17.5%	124%	120%	130%	134%	127%	125%	116%	70.3%	28.7%	39.2%	23.8%

Source: the supplement of paper PMC11451515
